As a reminder, the IC50 is the midpoint of a concentration-inhibition curve.

Where two headings read alike, the source gives them in different places.

This is an account of results in publication PMC10052652 (Molecules, 2023).

The nature of assay [1]: DPPH radical scavenging assay. The settings on record: for DPPH Assay %: at 100 µM.
Assay [2] deals with superoxide dismutase (SOD) (Homo sapiens, UniProt P00441). Briefly: biochemical. Here is the method: Pyrogallol auto-oxidation due to oxygen in the air can be inhibited by an enzyme that is naturally present in the body: superoxide dismutase (SOD). Furthermore, variations in the pyrogallol auto-oxidation rate in the presence of SOD were evaluated. Tests were carried out in triplicate. The objective was to find an inhibitor of the auto-oxidation of pyrogallol in the presence of a SOD enzyme solution. Samples were tested at a concentration of 50 µg/mL, followed by incubation for 4 min at 25 °C. […] The self-oxidation of pyrogallol was evaluated in the absence of the enzyme. For this, 30 µL of pyrogallol was added to 120 µL of tris buffer (in place of the SOD) (pH 8.5), then followed by the same steps of incubating a positive control (without the molecule); this was performed in the presence of 5% of DMSO to evaluate the percentage of SOD inhibition activity on the auto-oxidation of pyrogallol.
Sequence of superoxide dismutase (SOD) (P00441 whole entry): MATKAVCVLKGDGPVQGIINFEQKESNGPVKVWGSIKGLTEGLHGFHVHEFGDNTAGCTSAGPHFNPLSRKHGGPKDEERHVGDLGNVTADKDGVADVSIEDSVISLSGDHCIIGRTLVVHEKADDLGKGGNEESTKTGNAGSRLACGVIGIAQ

The target in assay [3] is T1, xanthine oxidase (XOD) (Homo sapiens, UniProt P47989). Kind of assay: biochemical. On the procedure: Anti-xanthine oxidase activity was assayed spectrophotometrically under aerobic conditions. First, 50 µL (50 µg/mL) of samples were added to 60 µL of phosphate buffer (pH 7.5) and 30 µL of xanthine oxidase enzyme solution (0.01 units/mL in phosphate buffer; pH 7.5). After pre-incubation at 25 °C for 15 min, the reaction was initiated by the addition of 60 µL of xanthine substrate solution (prepared in the same buffer). The assay mixture was incubated at 25 °C for 5 min. […] The assay was performed in triplicate. […] Tests were carried out in triplicate.
T1 sequence (P47989 whole entry, species assumed): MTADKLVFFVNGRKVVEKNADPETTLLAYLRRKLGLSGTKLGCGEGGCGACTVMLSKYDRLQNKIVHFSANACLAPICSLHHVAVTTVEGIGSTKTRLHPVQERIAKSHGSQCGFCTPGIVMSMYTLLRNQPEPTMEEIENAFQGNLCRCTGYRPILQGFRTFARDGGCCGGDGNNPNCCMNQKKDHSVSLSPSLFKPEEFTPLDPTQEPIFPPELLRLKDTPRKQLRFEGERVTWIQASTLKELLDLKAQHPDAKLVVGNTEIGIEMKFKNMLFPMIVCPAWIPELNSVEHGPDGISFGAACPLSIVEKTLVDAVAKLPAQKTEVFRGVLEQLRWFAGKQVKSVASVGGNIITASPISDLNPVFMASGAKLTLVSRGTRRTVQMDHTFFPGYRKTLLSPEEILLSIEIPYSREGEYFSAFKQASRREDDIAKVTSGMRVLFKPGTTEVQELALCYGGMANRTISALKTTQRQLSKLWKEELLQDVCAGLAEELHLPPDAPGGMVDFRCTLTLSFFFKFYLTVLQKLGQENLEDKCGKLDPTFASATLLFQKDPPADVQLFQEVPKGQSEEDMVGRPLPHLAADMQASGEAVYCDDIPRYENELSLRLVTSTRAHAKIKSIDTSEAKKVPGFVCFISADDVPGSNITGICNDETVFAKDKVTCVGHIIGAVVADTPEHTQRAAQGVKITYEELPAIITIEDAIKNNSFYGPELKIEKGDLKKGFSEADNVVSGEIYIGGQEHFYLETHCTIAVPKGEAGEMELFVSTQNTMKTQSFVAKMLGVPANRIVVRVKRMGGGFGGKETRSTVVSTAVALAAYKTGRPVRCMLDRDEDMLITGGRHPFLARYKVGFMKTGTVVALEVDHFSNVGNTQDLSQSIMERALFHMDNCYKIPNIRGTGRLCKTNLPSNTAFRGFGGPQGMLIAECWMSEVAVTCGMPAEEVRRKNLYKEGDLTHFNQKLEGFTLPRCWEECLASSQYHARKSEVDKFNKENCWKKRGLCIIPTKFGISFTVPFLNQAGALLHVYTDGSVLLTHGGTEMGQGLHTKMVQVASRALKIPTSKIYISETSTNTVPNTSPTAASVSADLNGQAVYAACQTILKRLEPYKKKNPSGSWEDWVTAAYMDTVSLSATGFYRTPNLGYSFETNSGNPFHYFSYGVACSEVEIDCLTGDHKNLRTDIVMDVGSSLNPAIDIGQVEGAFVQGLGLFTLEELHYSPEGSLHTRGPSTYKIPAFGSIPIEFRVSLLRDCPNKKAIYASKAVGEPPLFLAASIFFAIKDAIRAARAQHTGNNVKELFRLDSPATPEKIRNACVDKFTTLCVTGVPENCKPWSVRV

The conditions of assay [4]: cited from earlier work.
The subject of assay [5] is porcine pancreas α-amylase. The arrangement: method as in doi:10.15436/2377-0619.15.042. Particulars: at 1 mM, different protocols (chromogenic substrate p-nitrophenyl-α-D-maltopentaoside) ref 18; cited from earlier work.
Assay [6] deals with 12-lipoxygenase. The arrangement: method as in PMID 11447334. The settings on record: previous report ref 22; cited from earlier work.
Assay [7] concerns Aβ1-40-induced dementia. Further details: method as in PMID 25274114. The settings on record: rats ref 20; cited from earlier work.
Assay [8] has as its target T2, 15-lipoxygenase (Glycine max, UniProt P08170).
T2 sequence (P08170 1-839): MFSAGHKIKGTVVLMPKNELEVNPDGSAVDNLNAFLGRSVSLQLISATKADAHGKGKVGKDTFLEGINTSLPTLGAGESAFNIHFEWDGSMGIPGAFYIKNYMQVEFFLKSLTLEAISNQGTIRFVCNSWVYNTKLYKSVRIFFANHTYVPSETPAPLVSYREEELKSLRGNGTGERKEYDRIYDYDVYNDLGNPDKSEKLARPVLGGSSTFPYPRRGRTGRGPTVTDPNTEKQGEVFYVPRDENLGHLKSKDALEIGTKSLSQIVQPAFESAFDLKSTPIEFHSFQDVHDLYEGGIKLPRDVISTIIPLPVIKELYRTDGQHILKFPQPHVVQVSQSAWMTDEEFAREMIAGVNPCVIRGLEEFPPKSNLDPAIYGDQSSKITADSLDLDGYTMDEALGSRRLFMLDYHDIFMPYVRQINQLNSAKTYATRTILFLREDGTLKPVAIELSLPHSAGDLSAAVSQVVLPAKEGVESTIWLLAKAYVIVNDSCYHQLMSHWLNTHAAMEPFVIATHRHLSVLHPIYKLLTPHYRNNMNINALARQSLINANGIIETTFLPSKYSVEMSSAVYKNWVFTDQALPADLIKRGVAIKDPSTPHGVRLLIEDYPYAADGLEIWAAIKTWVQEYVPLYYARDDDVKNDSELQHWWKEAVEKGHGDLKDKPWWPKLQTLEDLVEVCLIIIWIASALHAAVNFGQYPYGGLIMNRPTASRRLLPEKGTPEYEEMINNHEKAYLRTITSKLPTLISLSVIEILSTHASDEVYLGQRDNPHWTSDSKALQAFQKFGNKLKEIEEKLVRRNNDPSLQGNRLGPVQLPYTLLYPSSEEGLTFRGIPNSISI
Briefly: Anti-inflammatory activity (anti 15-lipoxygenase). The format is biochemical. Particulars: at 100 µM.

Assay [9] concerns the target T1, xanthine oxidase (XOD). Type of assay: biochemical. The settings on record: at 100 µM.
On the set-up of assay [10]: method as in PMID 26504472. The settings on record: tested at 147.78 µM ref 17; cited from earlier work.

For `O=c1cc(-c2ccccc2)oc2cc(O)c(O)c(O)c12` [Molecule M7, 5,6,7-trihydroxyflavone], the IC50 is 5.2 ± 0.2 µM in assay [1]; 36.5 ± 1.2 µM in [2] (Anti SOD IC50); 31.5 ± 0.5 µM in [2] (read-out: Anti SOD IC50); over 100 µM in assay [3] (read-out: Anti XOD IC50); 21.2 µM in [4] (previous study ref 16, read-out: DPPH assay IC50); 1 µM in assay [6]. Besides, the “DPPH Assay %” value in [1] came out at 96.4 ± 0.1%. The “porcine pancreas α-amylase inhibition” value in [5] was 13.2 ± 2.4%. Also, in assay [7], the “effect on Aβ1-40-induced dementia” value is on record as “perfected Aβ1-40-induced dementia in rats”.

Regarding `O=c1cc(-c2ccccc2)oc2cccc(O)c12` [Molecule M4, 5-hydroxyflavone], the IC50 in assay [1], in assay [2] (Anti SOD IC50) and in assay [3] was over 100 µM each time. In addition, in assay [8], the “Anti 15-Lipoxygenase %” value was “ineffective”. Also, the “porcine pancreas α-amylase inhibition” value in assay [5] was “ineffective”.

Regarding `O=c1cc(-c2cc(O)cc(O)c2)oc2ccccc12` [Molecule M8, 3′,5′-dihydroxyflavone], the 50% inhibitory concentration (IC50) is over 100 µM in [1], over 50 µM in [2] (read-out: Anti SOD IC50) and 2.3 ± 0.1 µM in assay [3] (read-out: Anti XOD IC50). For the same molecule, the “DPPH Assay %” value in assay [1] came to 20.3 ± 4.1%. Further, in assay [9], the “Anti XOD %” value stood at 75.3 ± 1.6%.

As for `COc1ccc(-c2oc3c(CC=C(C)C)c(O[C@@H]4O[C@H](CO)[C@@H](O)[C@H](O)[C@H]4O)cc(O)c3c(=O)c2O[C@@H]2O[C@@H](C)[C@H](O)[C@@H](O)[C@H]2O)cc1` [Molecule M2, Icariin], the half-maximal inhibitory concentration (IC50) was over 100 µM in assay [1], over 50 µM in [2] (read-out: Anti SOD IC50) and over 100 µM in assay [3] (read-out: Anti XOD IC50). The “DPPH assay antioxidant activity” value in assay [4] (tested at 147.78 µM ref 17) was 3.8 ± 1.0%. Also, in assay [10], the “ABTS assay antioxidant activity” value is on record as 14.6 ± 0.1%.

Consider `O=c1cc(-c2cccc(O)c2)oc2cc(O)ccc12` [Molecule M13, 7,3′-dihydroxyflavone], for which the IC50 in assay [1] was over 100 µM; in [2] (read-out: Anti SOD IC50), over 50 µM; in assay [3] (read-out: Anti XOD IC50), 0.9 ± 0.2 µM. Moreover, the “Anti XOD %” value in assay [9] amounted to 64.2 ± 1.2%.

Take `O=c1cc(-c2cccc(O)c2)oc2ccc3ccccc3c12` [Molecule M9, 3′-hydroxy-b-naphthoflavone]: the IC50 in assay [1], in assay [2] (read-out: Anti SOD IC50) and in assay [3] (read-out: Anti XOD IC50) was over 100 µM in each case.

For the molecule `O=c1cc(-c2ccccc2)oc2ccc(O)cc12` [Molecule M3, 6-hydroxyflavone], the IC50 in [1] was over 100 µM; in assay [2] (read-out: Anti SOD IC50), over 50 µM; in [3] (read-out: Anti XOD IC50), over 100 µM. Besides, the “Anti 15-Lipoxygenase %” value in assay [8] is “ineffective”. Also, the “porcine pancreas α-amylase inhibition” value in [5] is recorded as 4.5 ± 1.1%.

In the case of `O=c1cc(-c2ccccc2)oc2cc(O)ccc12` [Molecule M5, 7-hydroxyflavone], the IC50 in assay [1] was over 100 µM; in assay [2] (read-out: Anti SOD IC50), 36.5 ± 1.2 µM; in assay [3] (read-out: Anti XOD IC50), over 100 µM. Moreover, in assay [8], the “Anti 15-Lipoxygenase %” value was “ineffective”. Moreover, the “porcine pancreas α-amylase inhibition” value in assay [5] was 4.8 ± 3.6%.

Regarding `O=c1cc(-c2ccccc2)oc2cc(O)cc(O)c12` [Molecule M1, 5,7-dihydroxyflavone], the IC50 in assay [1], in assay [2] (Anti SOD IC50) and in assay [3] was over 100 µM throughout. The “DPPH Assay %” value in [1] is listed as “not active”. Besides, the “Anti 15-Lipoxygenase %” value in [8] is reported as “ineffective”.

In the case of `COc1cc(-c2cc(=O)c3ccc4c(O)cccc4c3o2)cc(OC)c1OC` [Molecule M18, 7-hydroxy-3′,4′,5′-trimethoxy-α-naphthoflavone], the IC50 in assay [1], in assay [2] (read-out: Anti SOD IC50) and in assay [3] (read-out: Anti XOD IC50) was over 100 µM throughout. The “DPPH Assay %” value in assay [1] amounted to 40.8 ± 0.6%. Further, the “Anti XOD %” value in [9] was determined as 19.4 ± 1.0%.
